From US20250283046A1, “New Cell Populations and Means and Methods for their Differentiation and Preservation” (EVOTEC INTERNATIONAL GMBH, priority 2022, published 2025)

How the values were obtained:
Type in all cases: cell-based, human
[1] = system: post-thaw islet-like clusters; assay: Post-thaw recovery rate of islet-like clusters (viable cell count); conditions: combination protocol, frozen at EN stage with Medium A, freezing procedure A; GSI without T3 after thawing
Experimental: (§1) Using the combination protocol, induced pluripotent stem cells were differentiated into EN clusters. […] Clusters were cryoprotected before freezing by addition of the basal cryoprotective medium, consisting of KnockOut™ Serum Replacement, 10 μM ROCKi and 2 μM fatty acids, with increasing concentrations of DMSO and EG, in combination with incubation steps at decreasing temperatures. The DMSO and EG concentrations during the cryoprotection protocol and the corresponding stock concentrations, along with incubation times and temperatures, are given in table 1.
EN clusters, transferred to cryogenic vials, were frozen directly after the stepwise cryoprotection treatment in a controlled rate freezer using the following protocol (freezing procedure A): • 1. The sample is cooled-down to −7.5° C. (+/−0.7° C.); • 2. […]
Recovery rates were determined after post-thaw culture of 4-6 days, i.e. differentiation into islet-like clusters, by determination of viable cell count. Clusters, dissociated into single cells, were stained and analysed for different markers with flow cytometry. […]
Subsequent to the cryoprotection, the clusters were frozen using freezing procedure A, as described. […] Recovery rates of post-thaw islet-like clusters were determined by determination of viable cell count. Viability was determined with a viability staining with PI and FDA, imaged with a fluorescence microscope. […]

ILC cells [2] = assay: Flow cytometry of islet-like clusters differentiated from hiPSC with the combination protocol
Experimental: Beta cell differentiation from iPSC aggregates was carried out using several hiPSC lines with a new protocol derived by combining two published protocols (Nostro et al., Stem Cell Reports (2015), 4(4): 591-604; Rezania et al., Nat Biotechnol (2014), 32(11): 1121-1133), further referred to as “combination protocol”. iPSCs were seeded as single cells in suspension at 1×10^6 cells/mL in mTeSR1 (StemCell Technologies Inc.; 05850) with […] Y-27632 and kept in culture in 100 mL spinner flasks on a stirring platform to form aggregates under low shear conditions (see e.g. Fok and Zandstra, Stem Cells 2005; 23:1333-1342). At day 0 of differentiation, iPSC clusters were treated with Basal medium 1 (BM1) with the addition of 100 ng/mL Activin A, 2 μM CHIR 99021 and 10 μM Y-27632 to induce definitive endoderm. On subsequent days, media change was performed as described below, and occurred daily up to day 14, every other day after that. Definitive endoderm (DE) was induced from day 0 to day 3 and gut tube (GT) was patterned from day 3 to day 6. On day 6, pancreatic progenitors (PP) were induced until day 11. Commitment to the endocrine (EN) lineage was then performed between day 11 and day 14, and day 14 EN clusters were differentiated to islet-like clusters (ILCs) until day 24 (FIG. 1).
As a result, the content of chromogranin A^pos cells rose to levels above 95% (FIGS. 2A, 2C).
The addition of gamma secretase inhibitor and removal of T3 led to increased populations of pancreatic islet endocrine cells in islet-like clusters. […] In addition, the somatostatin^pos population was increased in islet-like clusters generated with the addition of gamma secretase inhibitor and removal of T3 (FIG. 7; FIG. 11; FIG. 14; FIG. 15A).
Quantification of the EC cell population in islet-like clusters was performed by FACS for serotonin^pos and C-peptide^neg cells. While islet-like clusters generated using the combination protocol (Control) contain 30% of pancreatic EC cells, the addition of gamma secretase inhibitor in absence of T3 (+GSI/−T3) led to a drastic reduction of this population, down to levels <15% (FIGS. 5A, 5B).

[3] = system: post-thaw islet-like clusters; assay: Single-cell RNA sequencing of post-thaw islet-like clusters; conditions: second protocol, frozen at EN+1
Experimental: While applying the second differentiation protocol, clusters were frozen at EN+1 using the described cryoprotective medium of 7.2% DMSO+2.8% EG added within the stepwise cryoprotection treatment and freezing procedure A. After thawing the EN clusters as described, the clusters were differentiated into islet-like clusters according to the second protocol (Control) in comparison to the second protocol with extension of GSI and without T3 addition. Single-cell RNA sequencing was carried out after thawing and differentiation into islet-like clusters, after dissociation of clusters into single cells.

ILC cells [4] = assay: Flow cytometry of islet-like clusters obtained with the second protocol; conditions: second protocol with addition of GSI and removal of T3
Text: As the combination protocol, the second protocol starts with seeding and aggregation of single pluripotent cells in suspension, and proceeds through the same intermediate stages of pancreatic embryonic development (definitive endoderm/DE, primitive gut tube, pancreatic progenitors, endocrine differentiation) to beta cell-containing islet-like clusters (ILCs) containing C-peptide^pos/insulin^pos/NKX6.1^pos beta cells. Differences to the combined protocol include the addition of a combination of BMP4 and bFGF during the first day of DE induction (see also Example 4), and longer durations of media incubations during pancreatic progenitor and endocrine induction, resulting in an overall longer time from start of differentiation to EN stage (EN stage on day 16 instead of day 14). Similar to the combined protocol, the second protocol was modified by additional gamma secretase inhibitor treatment in absence of T3 during the EN to ILC transition. The latter version of the adapted protocol is referred to “second protocol +GSI/−T3”.

islet-like clusters = assay: Single cell RNA sequencing and histology of islet-like clusters
Experimental: Beta cell differentiation from iPSC aggregates was carried out using several hiPSC lines with a new protocol derived by combining two published protocols (Nostro et al., Stem Cell Reports (2015), 4(4): 591-604; Rezania et al., Nat Biotechnol (2014), 32(11): 1121-1133), further referred to as “combination protocol”. iPSCs were seeded as single cells in suspension at 1×10^6 cells/mL in mTeSR1 (StemCell Technologies Inc.; 05850) with […] Y-27632 and kept in culture in 100 mL spinner flasks on a stirring platform to form aggregates under low shear conditions (see e.g. Fok and Zandstra, Stem Cells 2005; 23:1333-1342). At day 0 of differentiation, iPSC clusters were treated with Basal medium 1 (BM1) with the addition of 100 ng/mL Activin A, 2 μM CHIR 99021 and 10 μM Y-27632 to induce definitive endoderm. On subsequent days, media change was performed as described below, and occurred daily up to day 14, every other day after that. Definitive endoderm (DE) was induced from day 0 to day 3 and gut tube (GT) was patterned from day 3 to day 6. On day 6, pancreatic progenitors (PP) were induced until day 11. Commitment to the endocrine (EN) lineage was then performed between day 11 and day 14, and day 14 EN clusters were differentiated to islet-like clusters (ILCs) until day 24 (FIG. 1). […]

[5] = system: post-thaw islet-like clusters; assay: Flow cytometry of post-thaw islet-like clusters; conditions: combination protocol
Experimental: as §1
EN clusters, transferred to cryogenic vials, were frozen directly after the stepwise cryoprotection treatment in a controlled rate freezer using the following protocol (freezing procedure A): • 1. The sample is cooled-down to −7.5° C. (+/−0.7° C.); • 2. Induction of nucleation by mechanical agitation and inducing a supercool spot at the outer vial wall; • 3. Incubation for 15-minutes at −7.5° C.; • 4. Cool-down of sample to −40° C. at a rate of 0.3° C. per minute; • 5. Immersion of sample in liquid nitrogen; • 6. Transfer to liquid N2 tank for long-term storage.
After low-temperature storage of at least seven days, the EN clusters were thawed rapidly in a 37° C. waterbath and the cryoprotective medium is diluted with thawing medium, consisting of differentiation medium for the EN-stage as described previously, according to the combination protocol, supplemented with 20% KnockOut™ Serum Replacement and 10 μM ROCKi. After resuspension in fresh thawing medium, the EN clusters are cultured under standard culture conditions. The supplements in the thawing medium are removed by medium change after 24 hours, using differentiation medium for the EN-stage, according to the combination protocol, for further differentiation. Afterwards, the culture medium was refreshed regularly. […]
Recovery rates were determined after post-thaw culture of 4-6 days, i.e. differentiation into islet-like clusters, by determination of viable cell count. Clusters, dissociated into single cells, were stained and analysed for different markers with flow cytometry.

[6] = addition of gamma secretase inhibitor and removal of T3, compared to control
[7] = GSI in absence of T3 after thawing

## C[C@H](NC(=O)Cc1cc(F)cc(F)c1)C(=O)N[C@H]1N=C(c2ccccc2)c2ccccc2N(C)C1=O [gamma secretase inhibitor, gamma secretase inhibitor XXI (CAS 209986-17-4)]
[1]
  post-thaw recovery versus control: increases the post-thaw recovery
ILC cells [2]; addition of gamma secretase inhibitor (1 μM, day 14-17) and removal of T3 after EN stage, combination protocol
  content of chromogranin A^pos cells: above 95%
ILC cells [2]; [6]
  glucagon^pos cells: Significantly higher numbers
ILC cells [2]; addition of gamma secretase inhibitor and removal of T3, FACS
  NKX6.1^pos/C-peptide^pos beta cell population: > 65%
ILC cells [2]; addition of gamma secretase inhibitor in absence of T3
  VMAT1/SLC18A1 expression: similarly reduced
ILC cells [2]; addition of gamma secretase inhibitor in absence of T3, combination protocol, control 30%
  pancreatic EC cells (serotonin^pos and C-peptide^neg): < 15%
[3]; GSI without T3
  population of ductal cells, post-thaw: decreased to low levels
[3]; extended GSI in absence of T3
  populations of ARX^pos cells, post-thaw, versus Ctrl: increased
  populations of beta-cells, post-thaw, versus Ctrl: increased
  somatostatin (SST)^pos cells, post-thaw, versus Ctrl: increased
ILC cells [4]
  NKX6.1^pos/C-peptide^pos cells: above 65%
  serotonin^pos/C-peptide^neg cells: only a small fraction
islet-like clusters; addition of gamma secretase inhibitor and removal of T3
  ductal cells (SOX9^pos/CFTR^pos): Only residual ductal cells
islet-like clusters; [6]
  somatostatin^pos population: increased
[5]; [7]
  number of Chromogranin^pos cells in post-thaw islet-like clusters versus control: increases
  number of beta-cells in post-thaw islet-like clusters versus control: increases
[5]; GSI while omitting T3 after thawing
  C-peptide^neg/serotonin^pos cell levels in post-thaw islet-like clusters versus control: decreases
